Like-named read-outs stand apart in the source and are kept apart here.
Assays:
CYP3A4 = CYP3A4 (Homo sapiens (Human), UniProt P08684); test: 3A4 subtype of CYP450 enzyme time-dependent inhibition assay (IC50 shift); format: in vitro ADME; settings: probe testosterone, 50 µM; 30 min pre-incubation with vs without NADPH, testosterone substrate, human liver microsomes
Protocol: The probe substrate was testosterone at a concentration of 50 µM. The reaction was terminated after incubation for 10 min. The IC50 of the compound against enzyme was calculated by measuring the relative yield of metabolite, and the IC50 shift was calculated from the IC50 results of the groups pre-incubated with and without addition of NADPH.

ATX enzyme = ATX enzyme (Homo sapiens (Human), UniProt Q13822); test: ATX enzyme activity inhibition assay; format: biochemical; settings: 16:0-LPC substrate, Amplex UltraRed fluorescence
Protocol: The tested compounds were dissolved with dimethyl sulfoxide (DMSO) to prepare 20 mM of stock solutions, the stock solutions were subjected to 4-fold gradient dilutions with DMSO, with the initial concentration of 20 µM and a total of 8 concentration gradients. 20 nL of diluted compound was transferred to a 384-well plate using Echo 550 and 5 µL of ATX enzyme solution formulated with 4 × Tris-HCl reaction buffer to the well, then the 384-well plate was centrifuged at 1000 rpm for 1 min and […] pre-incubated at room temperature for 15 min. Subsequently, 5 µL of 16:0-LPC foumulated with the above 4 × reaction buffer and 10 µL of assay solution containng 2 × Amplex UltraRed reagent, choline oxidase and horseradish peroxidase (HRP) foumulated with the same reaction buffer were added to each well, then the 384-well plate was centrifugated at 1000 rpm for 1 min. The fluorescence signals were read at an excitation wavelength of 530 nm and an emission wavelength of 590 nm by Synergy 2 microplate reader. The inhibition rate of the compound against enzyme reaction was calculated according to the fluorescence intensity ratio, and IC50 of the compound was analysed and calculated by GraphPad Prism 5 software.

[1] = Rat pharmacokinetic study; format: in vivo, SD rat; settings: for half-life: read-out: t½ (converted)
Protocol: SD rat pharmacokinetic study was performed on several compounds in Examples of the present disclosure through a single intravenous injection (IV, at a dose of 2 mg/kg) and a single oral administration (PO, at a dose of 10 mg/kg), and blood samples were taken before administration and 5 min, 15 min, 30 min, 1 h, 2 h, 4 h, 8 h, 12 h and 24 h after administration, respectively, to determine the plasma concentration of the compound for assay. The pharmacokinetic data of control compound and the compounds in Examples 17, 26, 28 and 29 of the present disclosure in rat plasma are shown in Tables 4-8.

Chain of CYP3A4 (P08684 whole entry): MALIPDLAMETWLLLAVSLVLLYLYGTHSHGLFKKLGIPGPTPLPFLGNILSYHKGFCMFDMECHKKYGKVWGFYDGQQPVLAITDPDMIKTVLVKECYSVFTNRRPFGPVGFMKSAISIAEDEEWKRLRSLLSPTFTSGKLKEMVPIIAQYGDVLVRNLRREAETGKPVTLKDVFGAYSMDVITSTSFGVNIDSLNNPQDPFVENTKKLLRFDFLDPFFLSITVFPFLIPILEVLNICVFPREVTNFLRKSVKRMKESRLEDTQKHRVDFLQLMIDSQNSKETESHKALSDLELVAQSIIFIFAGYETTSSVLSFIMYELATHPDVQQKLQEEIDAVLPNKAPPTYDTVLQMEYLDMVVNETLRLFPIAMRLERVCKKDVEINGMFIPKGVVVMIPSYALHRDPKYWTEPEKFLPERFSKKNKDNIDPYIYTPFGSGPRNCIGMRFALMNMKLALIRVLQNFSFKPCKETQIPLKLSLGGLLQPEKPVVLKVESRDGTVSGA

`CCc1nc2ccc(-c3cnc(CC(=O)N4CC(O)C4)cn3)cn2c1N(C)c1nc(-c2ccc(F)cc2)c(C#N)s1` [Example 4, 2-((2-ethyl-6-(5-(2-(3-hydroxyazetidin-1-yl)-2-oxoethyl)pyrazin-2-yl)imidazo[1,2-a]pyridin-3-yl)(methyl)amino)-4-(4-fluorophenyl)thiazole-5-carbonitrile] showed an IC50 shift at 10 min (CYP3A4) of 1.04 and an IC50 (ATX enzyme) of 0.021 µM.

For `CCc1nc2ccc(-c3ncc(CC(=O)N4CC(O)C4)cc3F)cn2c1N(C)c1nc(-c2ccc(F)cc2)c(C#N)s1` [Example 10, 2-((2-ethyl-6-(3-fluoro-5-(2-(3-hydroxyazetidin-1-yl)-2-oxoethyl)pyridin-2-yl)imidazo[1,2-a]pyridin-3-yl)(methyl)amino)-4-(4-fluorophenyl)thiazole-5-carbonitrile], the IC50 (ATX enzyme) was 0.018 µM.

Molecule `CCc1nc2ccc(-c3cnc(CC(=O)NCC4CCC(=O)N4)cn3)cn2c1N(C)c1nc(-c2ccc(F)cc2)c(C#N)s1` (centres unmarked) [Example 14, 2-(5-(3-((5-cyano-4-(4-fluorophenyl)thiazol-2-yl)(methyl)amino)-2-ethylimidazo[1,2-a]pyridin-6-yl)pyrazin-2-yl)-N-((5-oxopyrrolidin-2-yl)methyl)acetamide] has an IC50 (ATX enzyme) of 0.042 µM.

Work on `CCc1nc2ccc(-c3ccc(CC(=O)N4CC(O)C4)nc3C)cn2c1N(C)c1nc(-c2ccc(F)cc2)c(C#N)s1` [Example 6, 2-((2-ethyl-6-(6-(2-(3-hydroxyazetidin-1-yl)-2-oxoethyl)-2-methylpyridin-3-yl)imidazo[1,2-a]pyridin-3-yl)(methyl)amino)-4-(4-fluorophenyl)thiazole-5-carbonitrile] yielded an IC50 (ATX enzyme) of 0.029 µM.

Molecule `CCN(c1nc(-c2ccc(F)cc2)c(C#N)s1)c1c2nc(-c3cnc(N4CC[C@@H](O)C4)nc3)ccc2nn1CC` [Example 28, (R)-2-(ethyl(2-ethyl-5-(2-(3-hydroxypyrrolidin-1-yl)pyrimidin-5-yl)-2H-pyrazolo[4,3-b]pyridin-3-yl)amino)-4-(4-fluorophenyl)thiazole-5-carbonitrile] has a Cl_F_pred ([1]; IV 2 mg/kg) of 2.33 mL/min/kg, a Cl_F_pred ([1]; PO 10 mg/kg) of 10 mL/min/kg and an F ([1]; PO 10 mg/kg vs IV 2 mg/kg) of 25.9%. The AUC(0-inf) ([1]; SD, plasma, IV 2 mg/kg) was 14100 ng·h/mL, the AUC(0-t) ([1]; SD, plasma, IV 2 mg/kg) was 13900 ng·h/mL and the Cmax ([1]; SD, plasma, IV 2 mg/kg) was 4380 ng/mL. The half-life ([1]; SD, plasma, IV 2 mg/kg) was 4.1 h, the AUC(0-inf) ([1]; SD, plasma, PO 10 mg/kg) was 18600 ng·h/mL and the AUC(0-t) ([1]; SD, plasma, PO 10 mg/kg) was 18000 ng·h/mL. The Cmax ([1]; SD, plasma, PO 10 mg/kg) was 1720 ng/mL, the Tmax ([1]; SD, plasma, PO 10 mg/kg) was 4 h and the half-life ([1]; SD, plasma, PO 10 mg/kg) was 4.2 h. The IC50 shift at 10 min (CYP3A4) was 1.28 and the IC50 (ATX enzyme) was 0.0038 µM.

Work on `CCN(c1nc(-c2ccc(F)cc2)c(C#N)s1)c1c2nc(-c3cnc(N4CC(OC(C)=O)C4)nc3)ccc2nn1CC` [Example 25, 1-(5-(3-((5-cyano-4-(4-fluorophenyl)thiazol-2-yl)(ethyl)amino)-2-ethyl-2H-pyrazolo[4,3-b]pyridin-5-yl)pyrimidin-2-yl)azetidin-3-yl acetate] yielded an IC50 (ATX enzyme) of 0.012 µM.

— patent US20230295159A1, “ATX INHIBITOR, AND PREPARATION METHOD THEREFOR AND USE THEREOF” (SUZHOU ARK BIOPHARMACEUTICAL CO., LTD., priority 2020, published 2023)
